Starred links: 1 amine or outer side, 2 acyl side, 3 side chain; linkers in the order of their positions; H or OH if unused. Positions of bridges follow the written chain, without caps; N, C: chain ends. Non-standard residues stand in square brackets, D forms with d. Residues, ends and D or L forms follow the SMILES beside them. oXylylene = c1ccc(C[*:2])c(C[*:1])c1; Pra = C#CC[C@H](N)C(=O)O
What was measured:
Format in all cases: in vitro ADME
[1] = Microplate fluorogenic CuAAC liposomal permeation assay (CF-N3-loaded SUVs); conditions: for Permeation in liposomal assay: reaction with liposomal CF-N3 (in words): real-time fluorogenic CuAAC
Protocol: DOPC or DOPG (10 mg/mL, 500 μL) were pipetted into a scintillation vial (20 mL), or DOPC (10 mg/mL, 400 μL) and POPC (10 mg/mL, 100 μL) were pipetted into a scintillation vial (20 mL). Samples were dried under argon then evaporatively dried in a vacuum desiccator (16 h). Degassed PBS buffer was combined with CF-N3 probe (1, 4, or 20 μM final) and ascorbic acid (AA, 10 mM). Lipid film was resuspended using degassed probe/AA/PBS buffer solution (1 mL), and the vial was incubated on a hot plate (15 min, 37 °C) with gentle vortexing (every 5 min). Lipid suspension was sonicated (1 min, Branson 3510 DTH ultrasonic cleaner) followed by rest (1 min), repeating 9 additional times. Liposomes were generated by extrusion (11 passages, 100 nm polycarbonate membrane, Mini-Extruder, Avanti Polar Lipids). Liposome solution was loaded into dialysis cassettes (10K MWCO, 3 mL Slide-A-Lyzer) and incubated in PBS buffer (1 L, 16 h, 4 °C). Liposome size distributions and stability were analyzed by dynamic light scattering (DLS, Zetasizer Nano ZS, Malvern Panalytical, United Kingdom).
The same protocol was followed to produce and characterize liposomes with other lipid compositions. DOPC (10 mg/mL, 400 μL), POPC (10 mg/mL, 100 μL), and cholesterol (5 mg/mL, 50/100 μL for 10%/20% mole of cholesterol, respectively) were combined, dried, and rehydrated with probe solution in scintillation vials. Brain polar lipid extract (25 mg/mL, 200 μL) or E. coli polar lipid extract (25 mg/mL, 200 μL) were dried and rehydrated with probe solution in scintillation vials.
CuSO4 (4 mg) was dissolved in DI H2O (500 μL, 50 mM), L-ascorbic acid (8.8 mg) was dissolved in PBS (500 μL, 100 mM), TBTA (2.7 mg) was dissolved in DMSO (509 μL, 10 mM), and mPEG17/mPEG8/mPEG4/PEG4s/propargyl amine/Cyc1–4 stock solutions (50 mM, with the purity > 95% by HPLC analysis) were prepared in DMSO, and CF-N3 was dissolved in DMSO (2 mM). Fluorogenic CuAAC reaction premixture was prepared by combining CuSO4 (10 μL) and TBTA (8 μL) in PBS (982 μL). Alkyne analytes were diluted (0.1 mM in CuAAC reaction premixture +2% DMSO). Free probe solution was prepared with CF-N3 (4 μM) and L-ascorbic acid (10 mM) in PBS buffer. Alkyne analyte in CuAAC premixture (5 μL) or CuAAC premixture +2% DMSO (5 μL) blank sample was combined with liposome (5 μL) or free probe solution (5 μL) in microtiter plate wells (384-well, Greiner, Thermo Scientific). Transient assay fluorescence (λex/λem = 488/530 nm) was detected using a multimode plate reader (CLARIOstar, BMG). Fluorescence fold gain was calculated by dividing the sample fluorescence by blank fluorescence. Initial velocities (V0) were obtained by linear regression analysis of the fluorescence fold gain after the initial lag period.
Assays were assembles as described above, combining liposomal probe (5 μL; 4 μ M CF-N3, 10 mM ascorbic acid, E. coli lipid SUV) with alkyne sample (5 μL) but with varying concentrations of mPEG4, mPEG8, mPEG17, and PEG4s (0.0001/0.001/0.005/0.01/0.05/0.1/0.5/1/5 mM) or Cyc1–4 (0.0001/0.001/0.005/0.01/0.05/0.1/0.5 mM). Broken liposomal V0 was obtained by combining liposomal probe (5 μL) with Triton X-100 solution (0.42 μL, 10% w/v), then adding the highest concentration sample for each alkyne (5 μL; 0.5 mM Cyc1–4 or 5 mM PEG samples). Transient assay fluorescence (λex/λem = 488/530 nm) was detected using a multimode plate reader (CLARIOstar). Each [alkyne] V0 was divided by the corresponding broken liposome maximum [alkyne] V0,broken. These normalized data were fit to a sigmoid to determine the [alkyne] at which V0/V0,broken was 50% maximum (PC50).

[2] = Parallel artificial membrane permeability assay (PAMPA), egg lecithin in dodecane; conditions: for Permeability class of control alkynes: control alkynes' permeabilities measured previously (ref 38) or via PAMPA (SI Table S1)
Protocol: A modified PAMPA was used for compound permeability measurements and was performed by Pharmaron. Briefly, alkyne stock solution (1 mM in DMSO) was diluted (50 μM final in PBS, pH 7.4). The lipid solution (1.8% w/v egg lecithin in dodecane, 5 μL spotting volume) was added to each acceptor well of the multiscreen-IP filter plate. PBS (300 μL) was added to all wells of the acceptor plate, and diluted alkyne stock (300 μL) was added to the wells of the donor plate in triplicate. The plate was assembled and incubated (16 h, 37 °C). An aliquot of donor well sample (2.5 μL) was diluted in PBS (47.5 μL), and an aliquot of the acceptor well (50 μL) was transferred to a 96-well analysis plate. Internal standard (100 nM alprazolam, 200 nM caffeine, 200 nM diclofenac in 100% MeOH) was added to all samples. Samples were vortexed and centrifuged (20 min, 3220g), then analyzed by LC-MS/MS.
The effective permeability (Pe) was calculated as [drawing 1] 1 [drawing 2] 2 where VD is the donor compartment volume (0.3 mL), VA is the acceptor compartment volume (0.3 mL), A is the filter area (0.24 cm^2), and t is the time (16 h).

[3] = Microfluidic droplet-scale liposomal permeation assay of photocleaved control beads; conditions: photocleaved from control beads on-chip by UV, E. coli polar lipid SUVs, 9% dextran
Protocol: Microfluidic droplet-based screening was performed in a UV-free room as previously described.[37],[47] Briefly, perfluorous oil phase (Novec 7500) with stabilizer (4% Pico-Surf) was loaded into a syringe (1 mL, BD Tuberculin, BD Medical, Franklin Lakes, NJ) fitted with blunt-end needle (30 gauge QuantX, Fisnar, Germantown, WI) and connected to the microfluidic device OIL1 inlet via Tygon microbore tubing (0.01” I.D. × 0.03” O.D. × I.D., United States Plastic Corp.). Aqueous inputs (AQ1 and AQ2, see below) were loaded into the syringes and connected to AQ inlets of the microfluidic device. Novec 7500 was loaded into syringes (10 mL) and similarly connected to the device via Tygon microbore tubing as spacing oil (OIL2) and flow focusing oil (OIL3). The incubation channel was primed with Novec 7500 by filling from the OIL2 and OIL3 inputs before initiating flows from OIL1 and AQ inlets. OIL and AQ flows were driven by syringe pumps (Legato 101, KD Scientific, Holliston, MA): AQ1 (400 nL/min) AQ2 (400 nL/min), OIL1 (500 nL/min), OIL2 (16 μ L/min), and OIL3 (6 μL/min). […]
Fluorescence data were acquired using a custom confocal laser-induced fluorescence detection system. Droplets were detected based on internal standard (cTMR) signal in PMT 2 as previously described.[36] CF-N3 probe fluorescence was detected in PMT 1. […] Once a droplet was detected, the average PMT 1 signal was calculated. […]

[4] = multiple SUV lipid formulations

C#CC[C@H](NC(=O)[C@H](Cc1c[nH]cn1)NC(=O)[C@H](Cc1c[nH]c2ccccc12)NC(=O)[C@@H](NC(=O)[C@H](Cc1c[nH]cn1)NC(=O)[C@H](Cc1ccccc1)NC(=O)[C@H]1CSCc2ccccc2CSC[C@@H](NC(=O)[C@@H](N)C(C)C)C(=O)N[C@@H](CC(N)=O)C(=O)N[C@@H](C)C(=O)N1)[C@@H](C)CC)C(N)=O [DD5o] (H-V[dC]NA[dC]FHIWH[Pra]-NH2; linker 2-5 via oXylylene)
Permeation in liposomal permeation assay (in words) ([1]; DOPG vesicles, PPA and PEG4s as controls (SI Figure S5)): permeable

C#CCOCCOCCOCCOCCS(=O)(=O)O [PEG4s, propargyl-PEG4-sulfonic acid]
Permeability class of control alkynes [2]: impermeable

C#CCN [PPA, propargylamine]
Permeability class of control alkynes [2]: permeable | Lag before reaching steady V0 in reaction with liposomal CF-N3 ([1]; CF-N3-loaded DOPC-POPC SUVs): ~10 min | Permeation in liposomal assay: reaction with liposomal CF-N3 (in words) ([1]; CF-N3-loaded DOPC-POPC SUVs): reacted

C#CCNC(=O)C(N)C(C)C (stereo not drawn) [PPA–V, valine-N-propargylamide]
Permeation in droplet-scale liposomal permeation assay (in words) [3]: permeable

C#CCOCCOCCOCCOC [mPEG4, m-PEG4-propargyl]
Permeation in liposomal permeation assay (in words) [1, 4]: readily permeated

C#CCOCCOCCOCCOCCOCCOCCOCCOC [mPEG8, m-PEG8-propargyl]
Permeation in liposomal permeation assay (in words) [1, 4]: readily permeated

C#CCOCCOCCOCCOCCOCCOCCOCCOCCOCCOCCOCCOCCOCCOCCOCCOCCOC [mPEG17, propargyl-PEG17-methane]
Permeability class of control alkynes [2]: impermeable | Papp at 16 h, 50 μM ([2]; egg lecithin PAMPA, 50 μM, PBS pH 7.4, 16 h, 37 °C, read-out: PAMPA Pe): > 0.004 ×10⁻⁶ cm/s | Permeation in liposomal assay: reaction with liposomal CF-N3 (in words) ([1]; CF-N3-loaded DOPC-POPC SUVs): undetectable | Permeation in liposomal permeation assay (in words) [1, 4]: largely impermeable
